The values that follow are results of earlier work, collected in patent publication US7429390B2, “Stable pharmaceutical compositions, processes for making the same and methods of their use” (priority 2007, dated 2008).

The structures appear in SMILES notation. Read-outs that look alike come from different tables or passages of the source. A value given as a limit tells only on which side of the number the result lay.

As to `CNC(=C[N+](=O)[O-])NCCSCc1ccc(CN(C)C)o1` [compound of Formula I, N-[2-[[[5-(dimethylamino)methyl-2-furanyl]methyl]thio]ethyl]-N′-methyl-2-nitro-1,1-ethenediamine], the “time to symptomatic relief” value (GERD, after starting therapy with 150 mg b.i.d.) was at most 24 h. Moreover, where the note is “endoscopically diagnosed erosive esophagitis, therapy initiation with 150 mg b.i.d.”, the “time to symptomatic relief of heartburn” value is at most 24 h. For the same compound, the “time in which most patients heal” value is at most 4 weeks (short-term treatment of active duodenal ulcer) and at most 6 weeks (short-term treatment of active, benign gastric ulcer).
